Converted amounts (≈) assume the structure as drawn. Read-outs that look alike come from different tables or passages of the source.
Experiments:
[1] = tested on: Mycobacterium tuberculosis H37Rv strain; assay: Anti-tubercular alamar blue microplate MIC assay; format: cell-based; conditions: 168 h, M. tuberculosis H37Rv, 7 days at 37° C., read-out: anti-mycobacterial activity (MIC)
DNA gyrase from E. coli = molecular target: T1, DNA gyrase from E. coli (Escherichia coli, UniProt P0AES4+P0AES6); assay: Inspiralis E. coli DNA gyrase inhibition assay; format: biochemical
T1 construct: purchased Inspiralis
Protocol: Inhibitory potencies were investigated utilizing the Inspiralis assay on streptavidin-coated 96-well microtiter plates. First, the plates were rehydrated with buffer (20 mM Tris-HCl with pH 7.6, 0.01% w/v BSA, 0.05% v/v Tween 20, 137 mM NaCl) and the biotinylated oligonucleotide was then immobilized. After washing off the unbound oligonucleotide, the enzyme test was performed. […] Reaction solutions were incubated at 37° C. for 30 min. After that, the TF buffer (50 mM NaOAc with pH 5.0, 50 mM NaCl and 50 mM MgCl2) was added to terminate the enzymatic reaction. After additional incubation for 30 min at rt, during which biotinoligonucleotide-plasmid triplex was formed, the unbound plasmid was washed off using TF buffer and SybrGOLD in T10 buffer (10 mM Tris HCl with pH 8.0 and 1 mM EDTA) was added. The fluorescence was measured with a microplate reader (BioTek Synergy H4, excitation: 485 nm, emission: 535 nm). Initial screening was done at 100 or 10 μM concentration of inhibitors. […] GraphPad Prism software was used to calculate the IC50 values. The result is given as the average value of three independent measurements.

[2] = tested on: Gram-positive and Gram-negative bacterial strains, drug sensitive and drug resistant; assay: In vitro antibacterial activity evaluation, whole strain panel
[3] = tested on: Enterococcus faecium ATCC 35667; assay: Antibacterial MIC, CLSI M07-A10 dilution susceptibility test; format: cell-based; conditions: ATCC35667
[4] = tested on: Pseudomonas aeruginosa MTCC 741; assay: as above; format: cell-based; conditions: MTCC741
[5] = tested on: Staphylococcus aureus ATCC BAA-1556 (MERSA resistant); assay: as above; format: cell-based; conditions: ATCCBAA1556
[6] = tested on: Escherichia coli MTCC 443; assay: as above; format: cell-based; conditions: MTCC443
[7] = tested on: Staphylococcus aureus ATCC 29213; assay: as above; format: cell-based; conditions: ATCC29213
[8] = tested on: Staphylococcus epidermidis; assay: as above; format: cell-based
[9] = tested on: Klebsiella pneumonia MTCC 618; assay: as above; format: cell-based; conditions: Klebsiella pneumoniae, MTCC618
[10] = tested on: Enterococcus faecium ATCC 51559 (VRE resistant); assay: as above; format: cell-based
[11] = tested on: Bacillus subtilis MTCC 441; assay: as above; format: cell-based; conditions: MTCC441

T1 sequence (P0AES4 whole entry, one chain of several): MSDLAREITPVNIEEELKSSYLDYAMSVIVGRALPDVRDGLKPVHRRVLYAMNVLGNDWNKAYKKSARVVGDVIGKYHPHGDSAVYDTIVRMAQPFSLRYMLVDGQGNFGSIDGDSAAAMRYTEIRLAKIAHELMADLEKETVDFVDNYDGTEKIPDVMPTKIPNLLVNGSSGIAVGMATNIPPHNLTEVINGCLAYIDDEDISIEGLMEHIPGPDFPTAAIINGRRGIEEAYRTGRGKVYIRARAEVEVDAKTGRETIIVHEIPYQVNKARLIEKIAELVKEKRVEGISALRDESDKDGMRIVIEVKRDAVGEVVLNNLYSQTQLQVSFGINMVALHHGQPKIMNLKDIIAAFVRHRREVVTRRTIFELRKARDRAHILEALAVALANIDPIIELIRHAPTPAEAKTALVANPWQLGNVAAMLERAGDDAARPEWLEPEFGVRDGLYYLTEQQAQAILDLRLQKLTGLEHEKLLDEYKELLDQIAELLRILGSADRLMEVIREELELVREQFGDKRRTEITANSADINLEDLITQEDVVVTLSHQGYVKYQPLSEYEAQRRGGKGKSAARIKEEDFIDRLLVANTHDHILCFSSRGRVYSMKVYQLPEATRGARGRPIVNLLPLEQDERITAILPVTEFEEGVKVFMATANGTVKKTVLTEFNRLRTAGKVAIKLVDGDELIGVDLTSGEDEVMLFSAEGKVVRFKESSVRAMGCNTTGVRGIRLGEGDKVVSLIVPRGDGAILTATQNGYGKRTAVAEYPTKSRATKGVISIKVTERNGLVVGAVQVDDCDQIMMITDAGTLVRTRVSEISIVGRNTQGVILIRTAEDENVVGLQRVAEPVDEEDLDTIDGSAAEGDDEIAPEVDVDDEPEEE

**Q.** For CNc1cc(F)cc2c1[nH]c1ccc(-c3cccc(CC(=O)O)c3)cc12 [Compound 1, 2-(3-(6-fluoro-8-(methylamino)-9H-carbazol-3-yl)phenyl)acetic acid], which MIC [1] is on record?
**A.** The MIC was 2 µg/mL (≈ 5.74 µM).

**Q.** And the IC50 (DNA gyrase from E. coli)?
**A.** The IC50 was 80 nM.

**Q.** What about the “antibacterial activity (in words)” value [2] of the same compound?
**A.** The value was “promising antibacterial activity”.

**Q.** Which MIC ([3]; Enterococcus faecium ATCC 35667, read-out: MIC) does the source give for CNc1cc(F)cc2c1[nH]c1ccc(Nc3cccc(C(=O)O)c3)cc12 [Compound 6, 3-((6-fluoro-8-(methylamino)-9H-carbazol-3-yl)amino)benzoic acid] here?
**A.** The MIC was 1 µg/mL (≈ 2.86 µM).

**Q.** What about the MIC ([4]; Pseudomonas aeruginosa MTCC 741, read-out: MIC) of the same compound?
**A.** Its MIC is 16 µg/mL (≈ 45.8 µM).

**Q.** And the MIC [5]?
**A.** Its MIC is 1 µg/mL (≈ 2.86 µM).

**Q.** What about the MIC ([6]; Escherichia coli MTCC 443, read-out: MIC) of the same compound?
**A.** The MIC was 32 µg/mL (≈ 91.6 µM).

**Q.** And the MIC [7]?
**A.** Its MIC is 0.75 µg/mL (≈ 2.15 µM).

**Q.** And the MIC ([8]; read-out: MIC)?
**A.** Its MIC is 0.5 µg/mL (≈ 1.43 µM).

**Q.** What about the MIC ([9]; Klebsiella pneumonia MTCC 618, read-out: MIC) of the same compound?
**A.** Its MIC is 1 µg/mL (≈ 2.86 µM).

**Q.** What about the MIC ([10]; Enterococcus faecium ATCC 51559 (VRE resistant), read-out: MIC) of the same compound?
**A.** The MIC was 2 µg/mL (≈ 5.72 µM).

**Q.** And the MIC ([11]; Bacillus subtilis MTCC 441, read-out: MIC)?
**A.** The MIC was 0.75 µg/mL (≈ 2.15 µM).

**Q.** How did the MIC ([3]; Enterococcus faecium) turn out when CN[C@H](CC(C)C)C(=O)N[C@H]1C(=O)N[C@@H](CC(N)=O)C(=O)N[C@H]2C(=O)N[C@H]3C(=O)N[C@H](C(=O)N[C@H](C(=O)O)c4cc(O)cc(O)c4-c4cc3ccc4O)[C@H](O)c3ccc(c(Cl)c3)Oc3cc2cc(c3O[C@@H]2O[C@H](CO)[C@@H](O)[C@H](O)[C@H]2O[C@H]2C[C@](C)(N)[C@H](O)[C@H](C)O2)Oc2ccc(cc2Cl)[C@H]1O [Vancomycin, reference compound] was run?
**A.** The MIC was 0.5 µg/mL (≈ 0.345 µM).

**Q.** What about the MIC ([4]; Pseudomonas aeruginosa) of the same compound?
**A.** Its MIC is > 128 µg/mL.

**Q.** And the MIC ([6]; Escherichia coli)?
**A.** The MIC was > 128 µg/mL.

**Q.** What about the MIC [8] of the same compound?
**A.** The MIC was 1 µg/mL (≈ 0.69 µM).

**Q.** What about the MIC [9] of the same compound?
**A.** Its MIC is > 128 µg/mL.

**Q.** And the MIC ([10]; Enterococcus faecium)?
**A.** Its MIC is > 128 µg/mL.

**Q.** What about the MIC ([11]; Bacillus subtilis) of the same compound?
**A.** Its MIC is 0.5 µg/mL (≈ 0.345 µM).

From patent US11807607B1, “Aminocarbazole compounds as antibacterial agents” (KING FAISAL UNIVERSITY, priority 2023, dated 2023)
